Experimental data from patent US5686460A, “Carbocyclic diarylmethylene derivatives, processes for their preparation and their uses in therapeutics” (Laboratoires UPSA, priority 1996, dated 1997).

Assays:
COX-2 = molecular target: T1, COX-2 (Ovis aries, UniProt P79208); assay: Inhibition of the COX-2 enzymatic activity (PGE2 determined by EIA); type: biochemical, ewe; conditions: arachidonic acid 4 μM, mean±standard deviations of 4 determinations; for inhibition at 10 µM: 10^-5 M; for inhibition at 0.1 µM: 10^-7 M
T1 construct: purified enzyme from ewe placenta; from tissue; host or cells: ewe placenta
T1 sequence (P79208 17-603): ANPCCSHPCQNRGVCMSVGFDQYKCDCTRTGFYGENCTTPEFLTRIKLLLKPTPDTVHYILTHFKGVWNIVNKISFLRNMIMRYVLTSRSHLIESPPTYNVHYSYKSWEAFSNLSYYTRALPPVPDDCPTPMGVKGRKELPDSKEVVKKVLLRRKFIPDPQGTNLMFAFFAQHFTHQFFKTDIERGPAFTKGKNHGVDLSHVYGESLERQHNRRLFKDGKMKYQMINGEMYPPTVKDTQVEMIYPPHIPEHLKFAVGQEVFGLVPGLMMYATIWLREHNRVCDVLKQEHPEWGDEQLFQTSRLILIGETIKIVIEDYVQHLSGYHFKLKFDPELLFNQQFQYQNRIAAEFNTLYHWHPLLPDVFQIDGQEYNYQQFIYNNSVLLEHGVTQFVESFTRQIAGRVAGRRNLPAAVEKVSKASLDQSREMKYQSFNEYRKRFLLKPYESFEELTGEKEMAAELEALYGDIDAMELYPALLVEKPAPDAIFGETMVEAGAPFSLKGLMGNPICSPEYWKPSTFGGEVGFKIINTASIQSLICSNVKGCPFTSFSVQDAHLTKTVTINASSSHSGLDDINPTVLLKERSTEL
Protocol: (§1) Inhibition of the COX-1 and COX-2 enzymatic activities The molecule studied is preincubated for 10 minutes at 25° C. with 2 U of COX-1 (purified enzyme from ram seminal vesicles) or 1 U of COX-2 (purified enzyme from ewe placenta). Arachidonic acid (6 μM for COX-1, 4 μM for COX-2) is added to the reaction medium and incubation is carried out for 5 minutes at 25° C. When incubation has ended, the enzymatic reaction is stopped by the addition of 1N HCl and the PGE2 produced is determined by EIA. The results are expressed as the percentage inhibition of the COX-1 and COX-2 enzymatic activities and correspond to mean±standard deviations of the average of 4 determinations.

carrageenin edema = carrageenin edema test (anti-inflammatory activity); type: in vivo; conditions: rat, oral, 100 mg/kg, 3 hours, n=6 animals per dose
Protocol: (§2) The anti-inflammatory activity of the compounds of the Examples was evaluated by the carrageenin edema method and the analgesic activity was evaluated by the kaolin arthritis method.
Anti-inflammatory activity:
The anti-inflammatory activity is evaluated in the rat by the carrageenin edema test. The product is administered orally at a rate of 2.5 ml/100 g (n=6 animals per dose) 2 h 30 rain after oral hyperhydration (2.5 ml/100 g). One hour after administration of the product, the edema is induced by the plantar subcutaneous injection of 2% aqueous carrageenin solution. The percentage inhibition of the volume of the edema is calculated after 3 hours by measurement of the volume of the paw with a mercury plethysmograph.

kaolin arthritis = kaolin arthritis test (analgesic activity); type: in vivo; conditions: rat, oral, 100 mg/kg, 5 h 30 after administration, n=10 animals per dose
Protocol: as §2
The analgesic activity is evaluated in the rat by the kaolin arthritis test. Thirty minutes after the intra-articular administration of 10% aqueous kaolin suspension, the product is administered orally at a rate of 1 ml/100 g (n=10 animals per dose). The percentage inhibition of the animal's pain response (grading of the gait) is calculated 5 h 30 rain after administration of the product.

COX-1 = assay: Inhibition of the COX-1 enzymatic activity (PGE2 determined by EIA); type: biochemical, ram; conditions: 10^-5 M; arachidonic acid 6 μM; mean±standard deviations of 4 determinations
Protocol: as §1

Row | SMILES | inhibition at 10 µM (COX-2) [%] | inhibition at 0.1 µM (COX-2) [%] | Anti-inflammatory activity % inhibition (of the volume of the edema) (carrageenin edema) [%] | Analgesic activity % inhibition (of the animal's pain response, grading of the gait) (kaolin arthritis) [%] | % inhibition of the COX-1 activity (COX-1) [%]
1 | CS(=O)(=O)c1ccc(C(=C2C=CC=C2)c2ccc(F)cc2)cc1 [Example 12, 4-[(Cyclopenta-2,4-dienylidene)(4-fluorophenyl)methyl]methyl-sulfonylbenzene] | 57 ± 3 |  |  |  | 
2 | CS(=O)(=O)c1ccc(C(=C2CCCC2)c2ccc(F)cc2)cc1 [Example 3, 4-[(Cyclopentylidene)(4-fluorophenyl)methyl]methylsulfonylbenzene] | 66 ± 4 | 21 ± 4 |  |  | 
3 | CS(=O)(=O)c1ccc(C(=C2CCCC2)c2ccc(Cl)nc2)cc1 [Example 6, 2-Chloro-5-[(cyclopentylidene)(4-methylsulfonylphenyl)methyl]-pyridine] | 65 ± 2 | 18 ± 8 | 45.8 ± 9.8 | 55.0 ± 15.7 | 0 ± 0
